# According to PMC4153544, “Antidiabetic Property of Symplocos cochinchinensis Is Mediated by Inhibition of Alpha Glucosidase and Enhanced Insulin Sensitivity” (PLoS ONE, 2014):
# Target: T1, rat intestinal alpha glucosidase
# T1 construct: gene Si; rat intestinal alpha-glucosidase preparation
# Assay: alpha-glucosidase inhibition assay
# Assay type: biochemical
# Conditions: standard; rat intestinal enzyme
smiles,measurement,value
C[C@H]1O[C@H](O[C@H]2[C@H](O)[C@@H](O)[C@@H](O[C@H]3[C@H](O)[C@@H](O)C(O)O[C@@H]3CO)O[C@@H]2CO)[C@H](O)[C@@H](O)[C@@H]1N[C@H]1C=C(CO)[C@@H](O)[C@H](O)[C@H]1O (stereo partly shown) [acarbose],IC50,49.78 ± 1.45 µg/mL
